Measurements as given in patent publication US9718790B2, “Triazine derivative and pharmaceutical composition having an analgesic activity comprising the same” (SHIONOGI & CO., LTD., priority 2010, dated 2017).

Columns and labels:
CYP3A4 = CYP3A4 (Homo sapiens (Human), UniProt P08684); assay: CYP inhibition test, pooled human hepatic microsome, terfenedine hydroxylation; assay type: in vitro ADME; settings: substrate terfenedine
Method: (§1) Using commercially available pooled human hepatic microsome, and employlng, as markers, 7-ethoxyresorufin O-deethylation (CYP1A2), tolbutamide methyl-hydroxylation (CYP2C9), mephenyloin 4′-hydroxylation (CYP2C19), dextromethorphan O-demethylation (CYP2D6), and terfenedine hydroxylation as typical substrate metabolism reactions of human main five CYP enzyme forms (CYP1A2, 2C9, 2C19, 2D6, 3A4), an inhibitory degree of each metabolite production amount by a test compound was assessed.
(§2) The reaction conditions were as follows: substrate, 0.5 μmol/L ethoxyresorufin (CYP1A2), 100 μmol/L tolbutamide (CYP2C9), 50 μmol/L S-mephenitoin (CYP2C19), 5 μmol/L dextromethorphan (CYP2D6), 1 μmol/L terfenedine (CYP3A4) reaction time, 15 minutes; reaction temperature, 37° C; enzyme, pooled human hepatic microsome 0.2 mg protein/mL; test drug concentration, 1.0, 5.0, 10, 20 μmol/L (four points).
(§3) Each five kinds of substrates, human hepatic microsome, or a test drug in 50 mmol/L Hepes buffer as a reaction solution was added to a 96-well plate at the composition as described above, NADPH, as a cofactor was added to initiate metabolism reactions as markers and, after the incubation at 37° C. for 15 minutes, a methanol/acetonitrile=1/1 (v/v) solution was added to stop the reaction. After the centrifugation at 3000 rpm for 15 minutes, resorufin (CYP1A2 metabolite) in the supernatant was quantified by a fluorescent multilabel counter and tributamide hydroxide (CYP2CP metabolite), mephenyloin 4′ hydroxide (CYP2C19 metabolite), […] (CYP2D6 metabolite), and terfenadine alcohol (CYP3A4 metabolite) were quantified by LC/MS/MS.

CYP2C9 = CYP2C9 (Homo sapiens (Human), UniProt P11712); assay: CYP inhibition test, pooled human hepatic microsome, tolbutamide methyl-hydroxylation; assay type: in vitro ADME; settings: substrate tolbutamide
Sequence of CYP2C9 (P11712 whole entry): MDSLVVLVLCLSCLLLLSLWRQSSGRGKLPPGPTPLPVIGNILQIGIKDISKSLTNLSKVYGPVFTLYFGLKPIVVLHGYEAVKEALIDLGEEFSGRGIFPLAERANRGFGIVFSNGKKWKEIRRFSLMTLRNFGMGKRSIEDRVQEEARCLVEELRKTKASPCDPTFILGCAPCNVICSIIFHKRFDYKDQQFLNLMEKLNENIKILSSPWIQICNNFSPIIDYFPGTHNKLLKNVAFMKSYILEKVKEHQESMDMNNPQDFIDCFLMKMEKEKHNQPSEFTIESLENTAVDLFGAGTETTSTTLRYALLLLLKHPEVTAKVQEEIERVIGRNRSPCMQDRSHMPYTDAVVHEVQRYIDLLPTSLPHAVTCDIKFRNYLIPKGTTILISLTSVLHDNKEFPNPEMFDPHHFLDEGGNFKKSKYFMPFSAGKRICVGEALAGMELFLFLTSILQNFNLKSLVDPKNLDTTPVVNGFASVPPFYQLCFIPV
Method: as §1, §2, §3

rat P2X3 receptor = rat P2X3 receptor (Rattus norvegicus (Rat), UniProt P49654); assay: Evaluation of rat P2X3 receptor inhibitory activity (Fluo-3 calcium fluorescence, FDSS 3000, ATP stimulation); assay type: cell-based
Sequence of rat P2X3 receptor (P49654 whole entry): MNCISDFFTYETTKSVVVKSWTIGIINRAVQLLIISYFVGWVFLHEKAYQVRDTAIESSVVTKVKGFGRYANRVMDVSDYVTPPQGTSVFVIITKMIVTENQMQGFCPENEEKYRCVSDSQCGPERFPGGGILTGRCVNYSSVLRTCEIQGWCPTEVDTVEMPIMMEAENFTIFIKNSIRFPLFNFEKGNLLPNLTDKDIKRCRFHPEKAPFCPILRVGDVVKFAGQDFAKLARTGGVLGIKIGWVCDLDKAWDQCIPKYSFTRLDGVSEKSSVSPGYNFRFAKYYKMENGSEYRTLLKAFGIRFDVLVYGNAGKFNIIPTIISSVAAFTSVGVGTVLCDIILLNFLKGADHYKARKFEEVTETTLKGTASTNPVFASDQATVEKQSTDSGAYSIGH
Method: Rat P2X3 receptor gene (GenBank accession number NM_031075) was expressed in C6BU-1 cell. The cells stably expressing rat P2X3 were seeded in a 96-well microtiter plate at a concentration of 8000 cells/well and cultured in the medium (8.3% fetal bovine serum. 8.3% horse serum, 1% antibiotic and antifungal in DMEM) for one day at 37° C. under 5% carbon dioxide atmosphere. In transiently expressing system, the C6BU-1 cells were seeded in a […] at a concentration of 2500 cells/well and cultured in the medium for one day at 37° C. under 5% carbon dioxide atmosphere. The plasmid was transfected into the cells using transfection reagent FuGENE6 (Roche). The transfected cells were cultured in the medium for one day at 37° C. under 5% carbon dioxide atmosphere. […] Measurement of fluorescence intensity by FDSS 3000 was started, and 40 μL of DMSO solutions containing different concentrations of the test compound as prepared by dilution with dilution buffer (20 mM HEPES, 137 mM NaCl, 2.7 mM KCl, 0.9 mM MgCl2, 5.0 mM CaCl2, 5.6 mM D-glucose, 2.5 mM probenecid, 0.1% Pluronic F-127, pH 7.5) were dispensed to each well through the built-in automatic dispenser. Five minutes after, […] ATP solution (50 μL) prepared by dilution with the dilution buffer was dispensed through the built-in automatic dispenser, and the measurement of fluorescence intensity was continued for 3 min. For each well, the specific maximum fluorescence intensity was calculated as the ratio of the maximum fluorescence intensity after addition of the ATP solution to the fluorescence intensity at the starting of the measurement. […] FDSS software (Hamamatsu Photonics K.K.) was used for calculation of the specific maximum fluorescence intensity. IC50 was calculated using Microsoft Excel (Microsoft Corporation) and XLfit (idbs Ltd.).

human liver microsomes = assay: Metabolism stability test with pooled human hepatic microsomes; assay type: in vitro ADME; settings: compound concentration 0.5 μmol/L, 30 minutes, NADPH
Method: Using commercially available pooled human hepatic microsomes, a test compound is reacted for a constant time, a remaining rate is calculated by comparing a reacted sample and an unreacted sample, thereby, a degree of metabolism in liver is assessed.
A reaction was performed (oxidative reaction) at 37° C. for 0 minute or 30 minutes in the presence of 1 mmol/L NADPH in 0.2 mL of a buffer (50 mmol/L tris-HCl pH 7.4, 150 mmol/L potassium chloride, 10 mmol/L magnesium chloride) containing 0.5 mg protein/mL of human liver microsomes. After the reaction, 50 μL of the reaction solution was added to 100 μL of a methanol/acetonitrile=1/1 (v/v), mixed and centrifuged at 3000 rpm for 15 minutes. The test compound in the supernatant was quantified by LC/MS/MS, and a remaining amount of the test compound after the reaction was calculated, letting a compound amount at 0 minute reaction time to be 100%.

human P2X3 receptor = human P2X3 receptor (Homo sapiens (Human), UniProt P56373); assay: Evaluation of human P2X3 receptor inhibitory activity (Fluo-3 calcium fluorescence, FDSS 3000, ATP stimulation); assay type: cell-based;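 further: stimulus was 50 nM ATP with fluorescence followed for 3 min, and the response per well was peak post-ATP fluorescence divided by the reading at measurement start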
Sequence of human P2X3 receptor (P56373 whole entry): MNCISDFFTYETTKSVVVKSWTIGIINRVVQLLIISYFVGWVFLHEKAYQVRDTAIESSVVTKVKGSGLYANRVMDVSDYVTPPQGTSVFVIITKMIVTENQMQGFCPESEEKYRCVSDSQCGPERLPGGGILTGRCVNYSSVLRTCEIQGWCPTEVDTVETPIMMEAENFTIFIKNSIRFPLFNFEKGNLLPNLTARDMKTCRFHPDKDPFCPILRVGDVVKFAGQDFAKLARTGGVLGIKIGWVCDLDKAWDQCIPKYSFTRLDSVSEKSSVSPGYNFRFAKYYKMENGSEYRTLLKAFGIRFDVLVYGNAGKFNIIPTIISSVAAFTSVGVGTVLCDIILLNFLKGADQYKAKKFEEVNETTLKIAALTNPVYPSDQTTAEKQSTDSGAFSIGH

[1] = human P2X3 receptor, Test Example 1

Sequence of CYP3A4 (P08684 whole entry): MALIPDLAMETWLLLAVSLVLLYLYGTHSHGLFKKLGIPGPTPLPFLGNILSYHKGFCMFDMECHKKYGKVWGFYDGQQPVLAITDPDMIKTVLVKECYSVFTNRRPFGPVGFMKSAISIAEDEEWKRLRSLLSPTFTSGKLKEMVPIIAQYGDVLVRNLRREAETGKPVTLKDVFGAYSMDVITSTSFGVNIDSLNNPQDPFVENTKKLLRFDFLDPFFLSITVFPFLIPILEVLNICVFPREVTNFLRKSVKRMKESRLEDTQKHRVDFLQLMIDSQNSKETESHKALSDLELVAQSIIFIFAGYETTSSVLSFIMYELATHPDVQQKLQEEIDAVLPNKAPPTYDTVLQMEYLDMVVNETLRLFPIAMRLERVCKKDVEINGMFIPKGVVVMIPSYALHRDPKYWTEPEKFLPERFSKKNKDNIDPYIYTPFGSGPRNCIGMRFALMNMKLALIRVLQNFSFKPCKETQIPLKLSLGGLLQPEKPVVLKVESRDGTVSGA

With `CCn1c(=O)[nH]/c(=N\c2ccc(Oc3ccnc(C(=O)O)c3)cc2)n(Cc2ccc(Cl)cc2)c1=O` [Compound I-1788] the IC50 (CYP3A4) was greater than 20000 nM, the IC50 (CYP2C9) was greater than 20000 nM and the IC50 (rat P2X3 receptor) was 5 nM. The remaining rate (human liver microsomes) was greater than 99.9% and the IC50 (human P2X3 receptor; C6BU-1 cells stably expressing human P2X3 receptor, Fluo-3 fluorescence, FDSS 3000) was 5 nM.

For `C[C@@H](Cn1c(=O)[nH]/c(=N\c2ccc(OCC3CC3)cc2)n(Cc2ccc(Cl)cc2)c1=O)C(=O)O` [Compound I-0837], the IC50 (CYP3A4) was greater than 20000 nM, the IC50 (CYP2C9) was greater than 20000 nM and the IC50 (rat P2X3 receptor) was 19 nM. The remaining rate (human liver microsomes) was 99% and the IC50 (human P2X3 receptor; [1]) was 17 nM.

`O=c1[nH]/c(=N\c2ccc(Oc3ccon3)cc2)n(Cc2ccc(Cl)cc2)c(=O)n1CC(CO)CO` [Compound I-2291] was tested, and the IC50 (CYP3A4) was greater than 20000 nM, the IC50 (CYP2C9) was greater than 20000 nM and the IC50 (rat P2X3 receptor) was 3 nM. It also gave a remaining rate (human liver microsomes) of 94% and an IC50 (human P2X3 receptor; [1]) of 4 nM.
